According to patent US20100285087A1, “SINGLE PHENOTHIAZINE ENANTIOMERS AS AGENTS FOR THE PREVENTION OF BONE LOSS” (The University Of Texas, priority 2003, published 2010):
Like-named read-outs stand apart in the source and are kept apart here.

Legend:
H1 receptor = target: T1, H1 receptor (Homo sapiens, UniProt P35367); assay: Histamine-stimulated IL-6 production in HUVEC cells (RT-PCR); format: cell-based; conditions: for Anti-histamine activity (IL-6 production assay), in words: 10^−5 M; for Histamine-stimulated IL-6 production reduced to fraction of that observed with histamine stimulation: ethopropazine concentration 10^−4 M
T1 construct: endogenous in cells; host or cells: HUVEC
Experimental: In the present studies, HUVEC cells were plated and grown to confluence in 6-well plates. […] The total RNA was isolated using Tri-reagent and subjected to reverse transcription polymerase chain reaction (RT-PCR™) analysis of IL-6 production using semi-quantitative analysis against HPRT expression (control gene).

osteoclasts [1] = assay: CalciFluor assay (OsteoAssay): calcium released by osteoclast-mediated resorptive activity; format: cell-based
From the text: A CalciFluor assay is used to measure the calcium that is released as a result of osteoclast-mediated resorptive activity. The first run of this assay looked at three new inventive compounds as well as establishing the data on the internal controls, (+/−)-promethazine and Alendronate (bis-phosphonate). The preliminary data on standards and inventive analogs is provided in Table 3, some general SAR (structure-activity relationships) trends are apparent.
The assay is optimized and dose-response data is generated on the Alendronate and Promethazine controls.

osteoclasts [2] = assay: Osteoclast resorption assay on mammoth tusk slices; format: cell-based
Experimental: During this time, osteoclasts mature and degrade bone matrix. At the end of the incubation period, cells are removed, the specimen examined by SEM and the absorption area/slice is quantitated versus control (untreated) slices.

[3] = Cytotoxicity testing of promethazine enantiomers; format: cell-based
[4] = system: ovariectomized rats (OVX); conditions: OVX + PROM rats, cited from earlier work
[5] = post-menopausal women, 50 mg/day promethazine associated with estrogens; cited from earlier work
osteoclasts [6] = conditions: peak of resorption (4 days), n = 8; cited from earlier work
[7] = first run, preliminary data, read-out: OsteoAssay IC50

T1 sequence (P35367 whole entry): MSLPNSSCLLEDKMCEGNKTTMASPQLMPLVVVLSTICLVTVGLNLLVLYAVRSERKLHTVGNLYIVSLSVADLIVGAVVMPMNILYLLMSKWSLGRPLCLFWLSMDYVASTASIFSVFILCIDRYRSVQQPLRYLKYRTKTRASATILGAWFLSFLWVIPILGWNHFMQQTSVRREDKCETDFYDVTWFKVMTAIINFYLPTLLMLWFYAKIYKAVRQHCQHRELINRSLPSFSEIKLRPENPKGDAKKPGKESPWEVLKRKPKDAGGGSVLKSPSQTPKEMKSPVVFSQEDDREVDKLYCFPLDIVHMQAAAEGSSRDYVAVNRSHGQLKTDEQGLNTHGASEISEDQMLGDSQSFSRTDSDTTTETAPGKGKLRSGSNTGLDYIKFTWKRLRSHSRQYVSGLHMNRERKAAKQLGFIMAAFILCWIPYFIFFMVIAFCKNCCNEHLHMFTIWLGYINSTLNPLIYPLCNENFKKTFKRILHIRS

With `CCN(CC)C(C)CN1c2ccccc2Sc2ccccc21.Cl` (single isomer, unassigned) [ethopropazine (+) enantiomer] the “Anti-histamine activity (IL-6 production assay), in words” value (“Anti-histamine activity” for short) (H1 receptor) was “so effective that resolution of the more active enantiomer could not be determined” and the “Histamine-stimulated IL-6 production reduced to fraction of that observed with histamine stimulation” value (H1 receptor) was “approximately two fifths”.
For `C[C@H](CN1c2ccccc2Sc2ccc(C(F)(F)F)cc21)N(C)C` [(R)-N,N-dimethyl-1-(2-(trifluoromethyl)-10H-phenothiazin-10-yl)propan-2-amine], the IC50 (osteoclasts [1]; [7]) was > 10 µM.
For `CC(CN(C)C)CN1c2ccccc2Sc2ccccc21` (single isomer, unassigned) [trimeprazine (+) enantiomer], the “Anti-histamine activity” value (H1 receptor) was “so effective that resolution of the more active enantiomer could not be determined”.
With `C[C@H](CN1c2ccccc2Sc2ccccc21)N(C)C` [(+)-PMZ, (R)-N,N-dimethyl-1-(10H-phenothiazin-10-yl)propan-2-amine] the IC50 (osteoclasts [1]; [7]) was < 1 µM, the “Concentration needed for 90% inhibition of bone resorption compared with the racemate” value (osteoclasts [2]) was “two orders of magnitude lower” and the “Efficacy for osteoclast inhibition compared with the racemate and the (−) enantiomer” value (osteoclasts [2]) was “threefold higher”. The inhibition at 0.1 µM (osteoclasts [2]; Osteoclast, 336 h, 10^−7 M, 14 days, read-out: Inhibition of bone resorption) was 90% and the “Cytotoxicity compared to the racemic mixture” value [3] was “did not have any significant increase in cytotoxicity”.
For `COc1ccc2c(c1)N(C[C@@H](C)N(C)C)c1ccccc1S2` [(R)-l-(2-methoxy-10H-phenothiazin-10-yl)-N,N-dimethylpropan-2-amine], the IC50 (osteoclasts [1]; [7]) was < 1 µM.
With `CCN(CC)C(C)CN1c2ccccc2Sc2ccccc21` (racemic) [Ethopropazine racemate, ethopropazine] the “Anti-histamine activity” value (H1 receptor) was “so effective that resolution of the more active enantiomer could not be determined” and the “Histamine-stimulated IL-6 production reduced to fraction of that observed with histamine stimulation” value (H1 receptor) was “approximately one fifth”.
For `CC(CN(C)C)CN1c2ccccc2Sc2ccccc21` (racemic) [trimeprazine racemate, trimeprazine], the “Anti-histamine activity” value (H1 receptor) was “so effective that resolution of the more active enantiomer could not be determined”.
For `CC(CN1c2ccccc2Sc2ccccc21)N(C)C` (racemic) [Promethazine racemate, promethazine], the Vertebra mg ([4]; 5th lumbar vertebra) is given as 253 ± 24 mg, the Vertebra mm ([4]; 5th lumbar vertebra) is given as 6.3 ± 0.3 mm and the “Cn-BV-TV (femur cancellous bone volume)” value [4] is given as 12.5 ± 5.6%. For the same compound, the “F-BMC (femur bone mineral content)” value [4] was 336 ± 30 mg, the F-BMC/BW [4] was 1.06 ± 0.06 mg/g and the “F-BMD (femur bone mineral density)” value [4] was 125 ± 14 mg/cm^2. The Femur mg [4] was 716 ± 38 mg, the Femur mm [4] was 34.5 ± 0.7 mm and the “Tb-N (trabecular number)” value [4] was 2.1 ± 0.7 mm^−1. For the same compound, the “Tb-Sp (trabecular separation)” value [4] was 477 ± 215 μm, the “Tb-Th (trabecular thickness)” value [4] was 57.5 ± 7.3 μm and the “V-BMC (5th lumbar vertebral bone mineral content)” value [4] was 100 ± 10 mg. For the same compound, the “V-BMD (5th lumbar vertebral bone mineral density)” value [4] was 108 ± 6 mg/cm^2, the “Z score F-BMC” value [4] was −1.7 ± 0.9 and the “Annual gain in spinal bone mass” value [5] was 3%.
Work on `NCCCC(O)(P(=O)(O)O)P(=O)(O)O` [Alendronate, alendronate] yielded an IC50 (osteoclasts [1]; optimized assay, dose response, FIG. 13, read-out: IC50, calcium release by osteoclast-mediated resorption) of ~10 µM.
For `COc1ccc(CN(CCN(C)C)c2ccccn2)cc1` [Mepyramine, mepyramine], the “Active Osteoclasts (on-bone cells)” value (osteoclasts [6]) is given as 9.6 ± 0.7, the “Inactive Osteoclasts (off-bone cells)” value (osteoclasts [6]) is given as 5.7 ± 0.8 and the “OBIT (OBI, mean interface of the active cells with the bone surface)” value (osteoclasts [6]) is given as 18.4 ± 0.8. The RS (osteoclasts [6]) was 17.6 ± 1.3 and the “Total Osteoclasts” value (osteoclasts [6]) was 15.3 ± 1.5.
With `CCN(CC)C(C)CN1c2ccccc2Sc2ccccc21.Cl` (single isomer, unassigned) [ethopropazine (−) enantiomer] the “Effectiveness relative to the (+) enantiomer (IL-6 reduction)” value (H1 receptor; ethopropazine) was “four times”, the “Effectiveness relative to the racemate (IL-6 reduction)” value (H1 receptor; ethopropazine) was “approximately twice” and the “Histamine-stimulated IL-6 production reduced to fraction of that observed with histamine stimulation” value (H1 receptor) was “one tenth”.
With `C[C@H](CN1c2ccccc2Sc2ccc(Cl)cc21)N(C)C` [(R)-l-(2-chloro-10H-phenothiazin-10-yl)-N,N-dimethylpropan-2-amine] the IC50 (osteoclasts [1]; [7]) was > 10 µM.
In the case of `C[C@@H](CN1c2ccccc2Sc2ccccc21)N(C)C` [promethazine (−) enantiomer, (S)-N,N-dimethyl-1-(10H-phenothiazin-10-yl)propan-2-amine], the “Cytotoxicity compared to the racemic mixture” value [3] is reported as “the same was also true”.
In the case of `CN/C(=N/CCSCc1nc[nH]c1C)NC#N` [Cimetidine, cimetidine], the “Active Osteoclasts (on-bone cells)” value (osteoclasts [6]) is listed as 6.2 ± 0.8, the “Inactive Osteoclasts (off-bone cells)” value (osteoclasts [6]) is listed as 3.1 ± 0.7 and the “OBIT (OBI, mean interface of the active cells with the bone surface)” value (osteoclasts [6]) is listed as 24.7 ± .9. For the same compound, the RS (osteoclasts [6]) was 14.4 ± 2.0 and the “Total Osteoclasts” value (osteoclasts [6]) was 9.4 ± 1.4.
